From patent US20210212984A1, “FORMULATION FOR PAIN MANAGEMENT” (Zyus Life Sciences Inc., priority 2019, published 2021)
Where “and” joins values, the source holds several entries; their conditions need not be identical. Equal entries are not always repeated.

What was measured:
Assay type in all cases: in vivo, Sprague-Dawley rats
SNL operated SD rats [1] = experiment: Data mining (contrastive PCA) of multivariate kinematic gait data: SNL model score and sedation score; conditions: 50 mg/kg
Experimental: In this Example, data mining was performed to extend the multivariate kinematic data analysis and capture (a) Parameters indicative of analgesia vs. sedation phenotypes (analgesic or sedation ‘fingerprint’) (b) Quantitative measurement of parameters attributed to the temporal aspects of motion to evaluate temporal aspects of motion, such as positions, angles, velocities, and accelerations of body segments and joints during motion. Briefly, Contrastive Principal Component Analysis (cPCA) was utilized to identify different combinations of original variables which were linked to model effect, learning effect, and sedative effects. An orthogonalization procedure was used to make the obtained effects independent. cPC scores corresponding to identified cPCs were computed. In order to evaluate the analgesic and sedative effects of CBD:CBC:THC 5:5:5 mg/kg group, separate comparisons were performed with vehicle and pregabalin as controls, CBD+THC 10:10 mg/kg as positive control for sedation and CBC 10 mg/kg as negative control for sedation. The results of these comparisons were obtained by using all the previously identified components: model effect, learning effect and model orthogonal to learning, sedation orthogonal to model, and finally, the sedation orthogonal to both model and learning. […]

SNL operated SD rats [2] = experiment: Fine motor kinematic gait analysis (MotoRater) in SNL rats; conditions: within group, D7 to 24 h PD
Experimental: Fine Motor Kinematic Gait Analysis. The rats were subjected to gait analysis at the baseline and on study days 8, 9, 11, 14 and 17, at a minimum of 30 min after the evF test. The assay were carried out by MotoRater (TSE Systems, Homburg, Germany), with the walking mode. Prior to commencing the test, the essential body points (e.g. joints, limbs, nose, tail) were marked for tracking. The information of the gait performance was captured using a high speed camera (300 frames/second) from below and both sides. Next, the captured videos were converted to SimiMotion™ software. The raw data were obtained by tracking the marked points of the body from the videos recorded from all 3 dimensions. […]
Different gait patterns and movements were analyzed using a custom-made automated analysis system. […]
All Motorater data were analyzed for the distinct parameters, as well as for all combined parameters, using principal component analysis (PCA). […]
Comprehensive kinematic analysis was performed by high sensitivity MotoRater that allows detection of any subtle to severe gait changes in SNL model. […] The fine motor capabilities and the gait of the animals were evaluated at the baseline and four times after the SNL surgery, 2 h, 5 h, 9 h and 24 hours post-dosing using the kinematic movement analysis of altogether 97 separate parameters that were recorded.

SNL operated SD rats [3] = experiment: Tactile allodynia test, electronic von Frey (evF), paw withdrawal threshold in spinal nerve ligation (SNL) rats
Experimental: Spinal Nerve Ligation (SNL) Surgery. The animals were enrolled to SNL surgery in daily cohorts of n=6. The rats first received an intraperitoneal dose of 0.03 mg/kg buprenorphine (Temgesic), minimum of 30 minutes prior to the surgery, to alleviate the operative and postoperative pain unrelated to neuropathy. Prior to spinal nerve ligation (SNL) procedure, the rats were anesthetized with isoflurane in 70% N2O and 30% O2; with a flow rate of 300 ml/min. Anesthesia was inducted in a chamber with 5% isoflurane for 2-3 min, and maintained through a snout mask with 1-2% isoflurane thereafter. A homeothermic blanket system was used for the rectal temperature to be monitored and maintained at 37.0° C.±1.5° C. during the operation.
A dorsal incision extending from L3 to S2 was performed to the medial dorsal area of the rat using aseptic technique. The L6/S1 posterior interarticular process was exposed using a combination of blunt and sharp dissection. The L6 transverse process in the spinal column was visualized and partially removed without manipulating the nerves, followed by exposing the L4 and L5 spinal nerves distal to their emergence from the intervertebral foramina.
The L5 nerve was ligated tightly with 6-0 silk suture. The L6 nerve was then located caudal and medial to the sacroiliac junction and tightly ligated with 6-0 silk suture, similarly to L5. Both ligatures were performed as double knots.
Tactile Allodynia Test (evF) and Pre-Handling and Baseline evF. In this study, mechanical sensitivity to touch stimuli was defined at four timepoints by using electronic von Frey (evF) device along with the attached analysis software (Somedic®, Sweden).
To perform the evF test, the rats were placed in individual von Frey test chambers standing on an elevated steel mesh. The rats were then allowed to adapt in the chambers, and the test per se was emerged after they have settled down followed by investigating the chamber and grooming (approximately 15 min). Test […] an animals were grooming, urinating, defecating or sleeping. Further description of test procedure is provided hereinbelow.
Conducting evF Test. Mechanical allodynia were assessed by evF test prior to SNL surgery (baseline), to define the individual sensitivity levels of the study animals. Next, the evF was performed on D 7 post-SNL, to assess the hypersensitivity evoked by the SNL surgery, and to provide pre-dosing sensitivity values for comparing. On D 8, the animals were subjected to the test at 2 h post-dosing (PD), at 4 h PD and at 8 h PD. Subsequently, the test was performed at 24 h PD, i.e. on D 9. On D 9, Group 2 received Pregabalin (i.p) at 2 h prior to testing.
The evF apparatus was used according to the manufacturer's instructions. Briefly, upon each measurement, the force is applied to mid-plantar surface of the hind paw in a linearly increasing rate.
The used evF probe diameter was 1 mm, and the chosen ascent rate of the force 10 g/s. The linearity of force application was monitored in real time. The applied force (in grams) causing paw withdrawal was recorded by the apparatus as the result for the trial.
Altogether, 5 repeated measurements were applied to each hind paw at each time-point leaving a minimum of 3-min interval between the repeats. Medians of the 5 measurement repeats were determined from each paw at any given time point. Both ipsi- and contralateral paws were also tested on each test day.

For `CC(C)C[C@H](CN)CC(=O)O` [Pregabalin], the “analgesic or sedative effect in the kinematic data” value (SNL operated SD rats [1]) was “no analgesic or sedative effect”, the “overall gait score pattern over time, in words” value (SNL operated SD rats [2]) was “increasing score until 9 h PD timepoint” and the “Mean Diff, evF AUC” value (SNL operated SD rats [3]; 5 mg/kg subset, labelled group vs. CBD + THC + CBC 5:5:1 mg/kg) was 13.8 and 14. For the same compound, the “Mean Diff, evF AUC” value (SNL operated SD rats [3]; 5 mg/kg subset, labelled group vs. Vehicle) was 29.8 and 30, the “Mean (Mean 1/Mean 2), electronic von Frey Area Under the Curve (AUC)” value (SNL operated SD rats [3]; Table 2B, 5 mg/kg subset, AUC of % of baseline PWT, pre-dosing to 24 h post-dosing, dose as in label, cannabinoids p.o. D8, Pregabalin 50 mg/kg i.p.) was 271 and the “Mean (Mean 1/Mean 2), electronic von Frey AUC” value (SNL operated SD rats [3]; Table 3, 10 mg/kg subset, AUC of % of baseline PWT, pre-dosing to 24 h post-dosing, dose as in label, cannabinoids p.o. D8, Pregabalin 50 mg/kg i.p.) was 270.8. The “Mean Diff, evF AUC” value (SNL operated SD rats [3]; Table 3, labelled group vs. CBD + THC 10 mg/kg) was −63.2, the “Mean Diff, evF AUC” value (SNL operated SD rats [3]; Table 3, labelled group vs. CBD + THC 10 mg/kg + CBC 2 mg/kg) was −49.2 and the “Mean Diff, evF AUC” value (SNL operated SD rats [3]; Table 3, labelled group vs. Vehicle) was 29.8. The “Mean Diff, evF AUC” value (SNL operated SD rats [3]; vs. Vehicle, separate 'Tukey's multiple comparison test' block at foot of Tables 2A/2B) was 29.8 and 30.
